In patent US9676771B2, “Compounds for inhibiting drug-resistant strains of HIV-1 integrase” (priority 2013, dated 2017):
Where two headings read alike, the source gives them in different places.

Assays:
[1] = system: HIV-1 constructs containing mutant IN R263K; experiment: Single-round HIV-1 infectivity assay, IN mutant R263K; format: cell-based; conditions: Human immunodeficiency virus 1
Description: (§1) Single-Round HIV-1 Infectivity Assay.
(§2) Human embryonyl kidney cell culture cell line 293 was acquired from the American type Culture Collection (ATCC).
(§3) […]. […] The virus-containing supernatants were then harvested, clarified by low-speed centrifugation, filtrated, and diluted for preparation in infection assays. […] After compound incorporation and activation in the cell, 100 μL of virus-stock diluted to achieve a maximum luciferase signal between 0.2 and 1.5 RLUs was added to each well and further incubated at 37° C. for 48 hrs. […] Activity was normalized to infectivity in the absence of target compounds. KaleidaGraph (Synergy Software, Reading, Pa.) was used to perform regression analysis on the data. EC50 values were determined from the fit model.
(§4) pNLNgoMIVR^−ΔEnv.LUC has been described previously (Zhao et al. 2008). The integrase codon reading frame was removed from pNLNgoMIVR^−ΔEnv LUC (between KpnI and SalI sites) and placed between the KpnI and SalI sites of pBluescript II KS+. Using that construct as the wild-type template, we prepared the following HIV-1 Integrase-resistant mutants via the QuikChange II XL (Stratagene, La Jolla, Calif.) site-directed mutagenesis protocol: H51Y, T66I, E92Q, G118R, Y143R, Q148H, Q148K, N155H, R263K, G140S+Q148H, G140A+Q148K, E138K+Q148K, and H51Y+R263K. The following sense with cognate antisense (not shown) oligonucleotides (Integrated DNA Technologies, Coralville, Iowa) were used in the mutagenesis: H51Y, 5′-[…]-3; T66I, 5′-[…]-3′; E92Q, 5′-[…]-3′; G118R, 5′-[…]-3′; E138K, 5′-[…]-3; G140A, 5′-[…]-3; G140S, 5′-[…]-3′; Y143R, 5′-[…]-3′; Q148H, 5′-[…]-3′; Q148K, 5′-[…]-3; N155H, 5′-[…]-3′; R263K 5′-[…]-3′. The double mutation G140S+Q148H was constructed by using the previously generated Q148H mutant and the appropriate oligonucleotide for the 2nd mutation, G140S. The double mutation G140A+Q148K was made by using the Q148K mutant and the appropriate oligonucleotide for the 2nd mutation, G140A. The double mutation E138K+Q148K was made by using the Q148K mutant and the appropriate oligonucleotide for the 2nd mutation, E138K. The double mutation H51Y+R263K was constructed by using the previously generated H51Y mutant and the appropriate oligonucleotides for the 2nd mutation, R263K. The DNA sequence of each construct was verified independently by DNA sequence determination. The mutant integrase coding sequences from pBluescript II KS+ were then subcloned into pNLNgoMIVR^−ΔEnv LUC (between the KpnI and SalI sites) to produce the full-length mutant HIV-1 Integrase constructs. These DNA sequences were additionally checked independently by DNA sequence determination.

[2] = system: HIV-1 constructs containing mutant IN G118R; experiment: microbe, parasite or virus in culture; format: cell-based; conditions: for EC50: Human immunodeficiency virus 1
Description: as §1, §2, §3, §4

HIV-1 integrase = HIV-1 integrase (Human immunodeficiency virus type 1 group M subtype B, UniProt P12497); experiment: biochemical; format: biochemical
Method in brief: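 Compounds or DMSO added to 20 nM DNA and 400 nM integrase in 50 mM MOPS pH 7.2, 7.5 mM MgCl2, 14 mM 2-mercaptoethanol; 2 h at 37° C, quenched with formamide/SDS loading buffer. Products resolved on gels, imaged and quantified by densitometry.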

[3] = system: HIV-1 constructs containing mutant IN G140S-Q148H; experiment: microbe, parasite or virus in culture; format: cell-based; conditions: for EC50: Human immunodeficiency virus 1
Method in brief: (§5)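 Single-round infectivity assay using luciferase-reporter pNLNgoMIVR−ΔEnv.LUC virus carrying site-directed integrase mutants, produced in 293 cells. Activity normalized to infectivity without compound; EC50 from regression fit.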

[4] = system: HIV-1 constructs containing mutant IN Y143R; experiment: microbe, parasite or virus in culture; format: cell-based; conditions: for EC50: Human immunodeficiency virus 1
Method in brief: as §5

[5] = system: HIV-1 constructs containing mutant IN N155H; experiment: microbe, parasite or virus in culture; format: cell-based; conditions: for EC50: Human immunodeficiency virus 1
Method in brief: as §5

[6] = Table 8, read-out: EC50 (nM, IN mutants) R263K
[7] = Table 8, read-out: EC50 (nM, IN mutants) G118R
[8] = Table 7, 3′-processing, read-out: IC50 (μM) 3′-P
[9] = Table 7, strand transfer, read-out: IC50 (μM) ST
[10] = Table 8, read-out: EC50 (nM, IN mutants) G140S/Q148H
[11] = Table 8, read-out: EC50 (nM, IN mutants) Y143R
[12] = Table 8, read-out: EC50 (nM, IN mutants) N155H
[13] = Table 6, read-out: EC50 (nM, IN Mutants) R263K
[14] = Table 6, read-out: EC50 (nM, IN Mutants) G118R
[15] = Table 3, G140S-Q148H double mutant, read-out: EC50 (nM, IN Mutants) SH
[16] = Table 3, read-out: EC50 (nM, IN Mutants) Y143R
[17] = Table 3, read-out: EC50 (nM, IN Mutants) N155H
[18] = Table 4, 3′-processing, read-out: IC50 (3^+-Processing)
[19] = Table 4, strand transfer, read-out: IC50 (Strand Transfer)
[20] = Table 10, strand transfer, read-out: IC50 (nM, ST)

| SMILES | EC50 [1, 6] | EC50 [2, 7] | IC50 (HIV-1 integrase; [8]) | IC50 (HIV-1 integrase; [9]) | EC50 [3, 10] | EC50 [4, 11] | EC50 [5, 12] | further results |
| --- | --- | --- | --- | --- | --- | --- | --- | --- |
| CC(=O)OCCCc1cnc2c(c1)c(N)c(C(=O)NCc1ccc(F)cc1F)c(=O)n2O [XZ424, 3-(5-Amino-6-((2,4-difluorobenzyl)carbamoyl)-8-hydroxy-7-oxo-7,8-dihydro-1,8-naphthyridin-3-yl)propyl acetate] | 1.75 nM | 5.9 nM | 14.3 ± 2.1 µM | 0.0102 ± 0.0016 µM | 13 nM | 2.93 nM | 5.4 nM | – |
| O=C(NCc1ccc(F)cc1F)c1c(O)c2cccnc2n(O)c1=O [XZ351, N-(2,4-difluorobenzyl)-1,4-dihydroxy-2-oxo-1,2-dihydro-1,8-naphthyridine-3-carboxamide] | – | – | – | – | – | – | – | EC50 [1, 13]: 35.9 ± 7.6 nM; Integrase Mutants G118R, fold-change in EC50 relative to WT [2]: 6 x; EC50 [2, 14]: 107 ± 40 nM; IC50 (HIV-1 integrase; Table 1, 3′-processing, read-out: IC50 Values 3′-Processing): 1.2 ± 0.2 µM; IC50 (HIV-1 integrase; Table 1, strand transfer, read-out: IC50 Values Strand transfer): 0.055 ± 0.008 µM; Integrase Mutants SH (G140S-Q148H), fold-change in EC50 relative to WT [3]: 50 x; EC50 [3, 15]: 308 ± 125 nM; Integrase Mutants Y143R, fold-change in EC50 relative to WT [4]: 2 x; EC50 [4, 16]: 11.3 ± 1.93 nM; Integrase Mutants N155H, fold-change in EC50 relative to WT [5]: 5 x; EC50 [5, 17]: 30.5 ± 7.76 nM |
| Nc1c(C(=O)NCc2ccc(F)cc2F)c(=O)n(O)c2ncc(CCCO)cc12 [XZ423, 4-Amino-N-(2,4-difluorobenzyl)-1-hydroxy-6-(3-hydroxypropyl)-2-oxo-1,2-dihydro-1,8-naphthyridine-3-carboxamide] | 2.5 nM | 10 nM | 4.3 ± 0.6 µM | 0.0113 ± 0.0027 µM | 13.4 nM | 2.8 nM | 8.5 nM | – |
| COC(=O)CCc1cnc2c(c1)c(N)c(C(=O)NCc1ccc(F)cc1F)c(=O)n2O [XZ434, Methyl 3-(5-amino-6-((2,4-difluorobenzyl)carbamoyl)-8-hydroxy-7-oxo-7,8-dihydro-1,8-naphthyridin-3-yl)propanoate] | 0.5 nM | 4.8 nM | 2.9 ± 0.6 µM | 0.0018 ± 0.0002 µM | 5.3 nM | 0.67 nM | 2.3 nM | – |
| COC(=O)CNc1c(C(=O)NCc2ccc(F)cc2F)c(=O)n(O)c2ncccc12 [XZ379, Methyl 2-((3-((2,4-difluorobenzyl)carbamoyl)-1-hydroxy-2-oxo-1,2-dihydro-1,8-naphthyridin-4-yl)amino)acetate] | – | – | – | – | – | – | – | EC50 [1, 13]: 25.9 ± 8.2 nM; EC50 [2, 14]: 41.3 ± 18 nM; IC50 (HIV-1 integrase; [18]): 0.71 ± 0.1 µM; IC50 (HIV-1 integrase; [19]): 0.021 ± 0.011 µM; EC50 [3, 15]: 35.5 ± 15.9 nM; EC50 [4, 16]: 4.6 ± 2.2 nM; EC50 [5, 17]: 19 ± 6.9 nM |
| C[C@@H]1CCO[C@H]2Cn3cc(C(=O)NCc4ccc(F)cc4F)c(=O)c(O)c3C(=O)N12 [DTG, dolutegravir, reference compound] | 11.3 nM | 13 ± 5 nM | – | – | 5.8 nM | 4.3 nM | 3.6 nM | IC50 (HIV-1 integrase; [20]): 0.0124 ± 0.0026 µM |
| Nc1c(C(=O)NCc2ccc(F)cc2F)c(=O)n(O)c2ncc(CCCCCO)cc12 [XZ419, 4-Amino-N-(2,4-difluorobenzyl)-1-hydroxy-6-(5-hydroxypentyl)-2-oxo-1,2-dihydro-1,8-naphthyridine-3-carboxamide] | 2.6 nM | 5.3 nM | 8.2 ± 1.2 µM | 0.0027 ± 0.0004 µM | 6.9 nM | 3 nM | 2.4 nM | – |
| Nc1c(C(=O)NCc2ccc(F)cc2F)c(=O)n(O)c2ncc(CCCCCCCCO)cc12 [XZ433, 4-Amino-N-(2,4-difluorobenzyl)-1-hydroxy-6-(8-hydroxyoctyl)-2-oxo-1,2-dihydro-1,8-naphthyridine-3-carboxamide] | 3.8 nM | 11.1 nM | 32 ± 6 µM | 0.0054 ± 0.0008 µM | 7.7 nM | 3.2 nM | 6.5 nM | – |
| CC(=O)OCCNc1c(C(=O)NCc2ccc(F)cc2F)c(=O)n(O)c2ncccc12 [XZ402, 2-((3-((2,4-difluorobenzyl)carbamoyl)-1-hydroxy-2-oxo-1,2-dihydro-1,8-naphthyridin-4-yl)amino)ethyl acetate] | – | – | – | – | – | – | – | EC50 [1, 13]: 16 ± 5.1 nM; EC50 [2, 14]: 43.5 ± 11.2 nM; IC50 (HIV-1 integrase; [18]): 5.3 ± 0.5 µM; IC50 (HIV-1 integrase; [19]): 0.027 ± 0.006 µM; EC50 [3, 15]: 35.1 ± 13.6 nM; EC50 [4, 16]: 4.8 ± 2.9 nM; EC50 [5, 17]: 3.1 ± 0.3 nM |
| O=C(NCc1ccc(F)cc1F)c1c(NCCO)c2cc(CCCCCO)cnc2n(O)c1=O [XZ437, N-(2,4-Difluorobenzyl)-1-hydroxy-4-((2-hydroxyethyl)amino)-6-(5-hydroxypentyl)-2-oxo-1,2-dihydro-1,8-naphthyridine-3-carboxamide] | 18.1 nM | 23.9 nM | 4 ± 0.5 µM | 0.0025 ± 0.0002 µM | 15.5 nM | 11.6 nM | 15 nM | – |
| COC(=O)CCc1cnc2c(c1)c(NCCO)c(C(=O)NCc1ccc(F)cc1F)c(=O)n2O [XZ438, Methyl 3-(6-((2,4-difluorobenzyl)carbamoyl)-8-hydroxy-5-((2-hydroxyethyl)amino)-7-oxo-7,8-dihydro-1,8-naphthyridin-3-yl)propanoate] | 6.5 nM | 4.8 nM | 3.2 ± 0.3 µM | 0.0031 ± 0.0003 µM | 15.9 nM | 3.8 nM | 3.9 nM | – |
| O=C(NCc1ccc(F)cc1F)c1c(O)c2c(CO)ccnc2n(O)c1=O [XZ440, N-(2,4-Difluorobenzyl)-1,4-dihydroxy-5-(hydroxymethyl)-2-oxo-1,2-dihydro-1,8-naphthyridine-3-carboxamide] | 4 ± 1.4 nM | 23 nM | – | – | 14.7 nM | 2.6 nM | 14.9 nM | IC50 (HIV-1 integrase; [20]): 0.0145 ± 0.0008 µM |
| Nc1c(C(=O)NCc2ccc(F)cc2F)c(=O)n(O)c2ncc(CCCCCCO)cc12 [XZ426, 4-Amino-N-(2,4-difluorobenzyl)-1-hydroxy-6-(6-hydroxyhexyl)-2-oxo-1,2-dihydro-1,8-naphthyridine-3-carboxamide] | 8.4 nM | 6.4 nM | 19 ± 1 µM | 0.00059 ± 0.00011 µM | 9.4 nM | 2.1 nM | 2.7 nM | – |
